Literature values, collected in patent publication US20210077498A1, “TRANSIENT PROTECTION OF HEMATOPOIETIC STEM AND PROGENITOR CELLS AGAINST IONIZING RADIATION” (G1 Therapeutics, Inc., priority 2015, published 2021).

Key:
[1] = test system: mice exposed to peri-lethal and lethal TBI; settings: compared to untreated controls; cited from earlier work
[2] = test system: CDK4/6 independent Rb-null melanoma cell line A2058; settings: cited from earlier work
[3] = in vivo; cited from earlier work
[4] = test system: CDK4/6-dependent cell lines; settings: cited from earlier work

For `O=C1NC(=O)c2c1c1c3ccccc3[nH]c1c1[nH]c3cc(Br)ccc3c21` [Formula 2BrIC, 2-bromo-12,13-dihydro-5H-indolo[2,3-a]pyrrolo[3,4]carbazole-5,6-dione], the “HSPC protection and survival after TBI” value [1] is listed as “protect HSPCs and improve survival of mice”, the G1 arrest [2] is listed as “did not G1 arrest” and the “protection from IR exposure” value [2] is listed as “failed to protect”. The bioavailability [3] was “restricted bioavailability” and the IR protection [4] was “exhibited IR protective characteristics”.
